According to PMC7686313, “Phase 1 study of mTORC1/2 inhibitor sapanisertib (TAK-228) in advanced solid tumours, with an expansion phase in renal, endometrial or bladder cancer” (British Journal of Cancer, 2020):

System: bladder cancer
Experiment: Tumour response according to RECIST v1.1, expansion phase, bladder cancer
Assay type: in vivo, human
Conditions: expansion Bladder cancer (n = 13)
Source text: Patients could be considered for enrolment in one of three disease-specific cohorts: (1) advanced or recurrent endometrial adenocarcinoma with disease progression following ≥1 prior chemotherapy regimen; (2) advanced/metastatic urothelial cancer (carcinoma of the bladder, ureter and/or renal pelvis), progressive after ≥1 prior therapy in the metastatic/unresectable setting; (3) advanced RCC after failure of ≥1 prior antivascular endothelial growth factor therapy with no prior TORC1 inhibitor therapy, or progressed on treatment with TORC1 inhibitor therapy.

Structure (SMILES): CC(C)n1nc(-c2ccc3oc(N)nc3c2)c2c(N)ncnc21 [Sapanisertib]
- Best overall response CR: 0 n (%)
- Best overall response PD: 8 (62) n (%)
- Best overall response PR: 0 n (%)
- Best overall response SD < 6 months: 4 (31) n (%)
- Best overall response SD ≥ 6 months: 1 (8) n (%)
- CBR (CR + PR + SD ≥ 6 months): 1 (8) n (%)
- ORR (CR + PR): 0 n (%)
